What all share (experiment): Pre-emergent herbicidal activity (Table A)
Common to all, as to type: in vivo

One assay relates to Common Lambsquarters. The conditions noted are these: Chenopodium album, pre-emergence, Colq, 11.2 kg/ha, 10-14 days, read-out: herbicidal rating (% inhibition). As for the experimental part: (§1) The herbicidal ratings used in Tables A and B were assigned according to a scale based on the percent inhibition of each plant species. The herbicide rating symbols in Tables A and B are defined as follows: […]
(§2) One set of pre-emergent tests was conducted as follows:
(§3) Topsoil was placed in a pan and compacted to a depth of 0.95 to 1.27 cm. from the top of the pan. A predetermined number of seeds of each of several monocotyledonous and dicotyledonous annual plant species and/or vegetative propagules of various perennial plant species were placed on top of the soil. The soil required to level fill a pan after seeding or adding vegetative propagules was weighed into another pan. A known amount of the test compound dissolved or suspended in an organic solvent or water and applied in acetone or water as a carrier was thoroughly mixed with this cover soil, and the herbicide/soil mixture was used as a cover layer for the previously prepared pan.
(§4) The plant species usually regarded as weeds which were utilized in one set of pre-emergent activity tests, the data for which are shown in Table A, are identified by letter headings printed diagonally above the columns according to the following legend: […]

The subject of a further assay is Pennsylvania Smartweed. The conditions noted are these: pre-emergence, Pesw, 11.2 kg/ha, 10-14 days, read-out: herbicidal rating (% inhibition). Here is the method:
as §1, §2, §3, §4

The next assay deals with Cocklebur. Particulars: Xanthium strumarium, pre-emergence, Cobu, 11.2 kg/ha, 10-14 days, read-out: herbicidal rating (% inhibition). Here is the method: as §1, §2, §3, §4
The subject of a further assay is Downy Brome. Particulars: Bromus tectorum, pre-emergence, Dobr, 11.2 kg/ha, 10-14 days, read-out: herbicidal rating (% inhibition). As for the experimental part: as §1, §2, §3, §4
Another assay deals with Morningglory. Particulars: Ipomoea, pre-emergence, Mogl, 11.2 kg/ha, 10-14 days, read-out: herbicidal rating (% inhibition). As for the experimental part: as §1, §2, §3, §4
The test system of another assay is Rhizome Johnsongrass. Particulars: Sorghum halepense, pre-emergence, Rhjg, 11.2 kg/ha, 10-14 days, read-out: herbicidal rating (% inhibition). Here is the method: as §1, §2, §3, §4
The test system of another assay is Canada thistle. The conditions noted are these: Cirsium arvense, pre-emergence, Cath, 11.2 kg/ha, 10-14 days, read-out: herbicidal rating (% inhibition). As for the experimental part: as §1, §2, §3, §4
The next assay relates to Yellow Nutsedge. Particulars: Cyperus, pre-emergence, Yens, 11.2 kg/ha, 10-14 days, read-out: herbicidal rating (% inhibition). As for the experimental part: as §1, §2, §3, §4
The next assay relates to Quackgrass. Particulars: pre-emergence, Rhqg, 11.2 kg/ha, 10-14 days, read-out: herbicidal rating (% inhibition). As for the experimental part: as §1, §2, §3, §4
The subject of another assay is Velvetleaf. Particulars: Abutilon theophrasti, pre-emergence, Vele, 11.2 kg/ha, 10-14 days, read-out: herbicidal rating (% inhibition). Here is the method:
as §1, §2, §3, §4

For the next assay, the system named is Barnyardgrass. Particulars: Echinochloa crus-galli, pre-emergence, Bygr, 11.2 kg/ha, 10-14 days, read-out: herbicidal rating (% inhibition). Here is the method: as §1, §2, §3, §4

Usually inhibition stands for the change of the read-out against control, counted positive when it falls.

Structures are written as SMILES.

Take `COC(=O)c1c(C(F)(F)F)nc(OC)c(-n2cccc2)c1CC(C)C` [Compound 14, 3-pyridinecarboxylic acid, 6-methoxy-4-(2-methylpropyl)-5-(1H-pyrro1-1-yl)-2-(trifluoromethyl)-, methyl ester]: the inhibition at 11200 g/ha with Common Lambsquarters lay in the range of 75 to 100%; in the assay on Pennsylvania Smartweed, 75 to 100%; in the assay on Cocklebur it was 0 to 24%; with Downy Brome, 75 to 100%; in the assay on Morningglory, 75 to 100%; in the assay with Rhizome Johnsongrass it was 75 to 100%. The inhibition at 11200 g/ha lay within 75 to 100% in the assay on Canada thistle; 0 to 24% in the assay with Yellow Nutsedge; 50 to 74% in the assay with Quackgrass; 75 to 100% in the assay on Velvetleaf; 75 to 100% with Barnyardgrass.

Regarding `COC(=O)c1c(OC)nc(C(F)(F)F)c(-n2cccc2)c1CC(C)C` [Compound 15, 3-pyridinecarboxylic acid, 2-methoxy-4-(2-methylpropyl)-5-(1H-pyrro1-1-yl)-6-(trifluoromethyl)-, methyl ester], the inhibition at 11200 g/ha in the assay with Common Lambsquarters was in the range of 75 to 100%; in the assay with Pennsylvania Smartweed, 75 to 100%; with Cocklebur it was 0 to 24%; in the assay with Downy Brome, 75 to 100%; in the assay with Morningglory, 75 to 100%; with Rhizome Johnsongrass it was 75 to 100%. Also, the inhibition at 11200 g/ha in the assay on Canada thistle is 75 to 100%; in the assay with Yellow Nutsedge it was 25 to 49%; with Quackgrass, 75 to 100%; in the assay with Velvetleaf, 75 to 100%; in the assay with Barnyardgrass, 75 to 100%.

For the compound `CCCCOC(=O)c1c(C(F)(F)F)nc(OC)c(C(=O)OC)c1CC(C)C` [Compound 16, 3,5-pyridinedicarboxylic acid, 2-methoxy-4-(2-methylpropyl)-6-(trifluoromethyl)-, 5 butyl 3-methyl ester], the inhibition at 11200 g/ha in the assay on Common Lambsquarters is 75 to 100%; in the assay with Pennsylvania Smartweed, 75 to 100%; with Cocklebur it was 0 to 24%; in the assay with Downy Brome, 75 to 100%; in the assay with Morningglory it was 75 to 100%; with Rhizome Johnsongrass, 0 to 24%. Besides, the inhibition at 11200 g/ha lay in the range of 50 to 74% in the assay on Canada thistle; 0 to 24% in the assay with Yellow Nutsedge; 75 to 100% in the assay on Quackgrass; 75 to 100% with Velvetleaf; 75 to 100% in the assay with Barnyardgrass.

Regarding `COC(=O)c1c(C(F)(F)F)nc(OC)c(C#N)c1CC(C)C` [Compound 20, 3-pyridinecarboxylic acid, 5-cyano-6-methoxy-4-(2-methylpropyl)-2-(trifluoromethyl)-, methyl ester], the inhibition at 11200 g/ha lay in the range of 75 to 100% in the assay with Common Lambsquarters; 25 to 49% in the assay with Pennsylvania Smartweed; 0 to 24% with Cocklebur; 75 to 100% in the assay on Downy Brome; 50 to 74% in the assay on Morningglory; 75 to 100% with Rhizome Johnsongrass. The inhibition at 11200 g/ha in the assay on Canada thistle fell in the range of 0 to 24%; in the assay with Yellow Nutsedge, 0 to 24%; in the assay with Quackgrass, 75 to 100%; with Velvetleaf, 0 to 24%; in the assay on Barnyardgrass it was 75 to 100%.

Turning to `CNC(=O)c1c(OC)nc(C(F)(F)F)c(C(=O)OC)c1CC(C)C` [Compound 21, 3-pyridinecarboxylic acid, 6-methoxy-5-[(methylamino)carbonyl]-4-(2-methylpropyl)-2-(trifluoromethyl)-, methyl ester], the inhibition at 11200 g/ha with Common Lambsquarters lay in the range of 75 to 100%; with Pennsylvania Smartweed, 0 to 24%; with Cocklebur, 0 to 24%; with Downy Brome, 75 to 100%; in the assay with Morningglory, 0 to 24%; with Rhizome Johnsongrass it was 0 to 24%. Moreover, the inhibition at 11200 g/ha lay in the range of 0 to 24% in the assay with Canada thistle; 0 to 24% with Yellow Nutsedge; 75 to 100% in the assay on Quackgrass; 0 to 24% with Velvetleaf; 75 to 100% in the assay on Barnyardgrass.

On to `COC(=O)c1c(C(F)(F)F)[nH]c(=O)c(C#N)c1CC(C)C` [Compound 22, 3-pyridinecarboxylic acid, 5-cyano-1,6-dihydro-4-(2-methylpropyl)-6-oxo-2-(trifluoromethyl)-, methyl ester], for which the inhibition at 11200 g/ha in the assay with Common Lambsquarters, in the assay on Pennsylvania Smartweed, with Cocklebur, in the assay with Downy Brome, in the assay on Morningglory and in the assay with Rhizome Johnsongrass was 0 to 24% throughout. Moreover, the inhibition at 11200 g/ha in the assay with Canada thistle, in the assay with Yellow Nutsedge, with Quackgrass, in the assay on Velvetleaf and with Barnyardgrass was 0 to 24% throughout.

Turning to `C=CCOc1nc(C(F)(F)F)c(C(=O)OC)c(CC(C)C)c1C(=O)OCC` [Compound 23, 3,5-pyridinecarboxylic acid, 4-(2-methy1-propyl)-2-(2-propenyloxy)-6-(trifluoromethyl)-, 3-ethyl 5-methyl ester, hydrate (1:0.3)], the inhibition at 11200 g/ha is 75 to 100% in the assay on Common Lambsquarters; 75 to 100% with Pennsylvania Smartweed; 0 to 24% in the assay on Cocklebur; 75 to 100% with Downy Brome; 25 to 49% in the assay with Morningglory; 75 to 100% in the assay on Rhizome Johnsongrass. Further, the inhibition at 11200 g/ha in the assay with Canada thistle lay within 0 to 24%; in the assay on Yellow Nutsedge, 0 to 24%; with Quackgrass, 25 to 49%; in the assay with Velvetleaf, 25 to 49%; with Barnyardgrass it was 75 to 100%.

For `COC(=O)c1c(C(F)(F)F)nc(OC)c(C(=O)n2cccn2)c1CC(C)C` [Compound 24, 3-pyridinecarboxylic acid, 6-methoxy-4-(2-methylpropyl)-5-(1H-pyrazo1-1-ylcarbonyl)-2-(trifluoromethyl)-, methyl ester, hydrate (1:0.3)], the inhibition at 11200 g/ha in the assay on Common Lambsquarters was 75 to 100%; in the assay with Pennsylvania Smartweed it was 75 to 100%; in the assay on Cocklebur it was 0 to 24%; with Downy Brome, 75 to 100%; in the assay with Morningglory, 75 to 100%; with Rhizome Johnsongrass, 75 to 100%. For the same compound, the inhibition at 11200 g/ha lay in the range of 25 to 49% in the assay with Canada thistle; 0 to 24% in the assay on Yellow Nutsedge; 75 to 100% in the assay on Quackgrass; 75 to 100% with Velvetleaf; 75 to 100% with Barnyardgrass.

Turning to `COC(=O)c1c(C(F)(F)F)nc(OC)c(C(=O)NCCO)c1CC(C)C` [Compound 25, 3-pyridinecarboxylic acid, 5-[[(2-hydroxyethyl)amino]carbonyl]-6-methoxy-4-(2-methylpropyl)-2-(trifluoromethyl)-, methyl ester, hydrate (1:0.2)], the inhibition at 11200 g/ha in the assay on Common Lambsquarters, in the assay on Pennsylvania Smartweed, in the assay on Cocklebur, in the assay with Downy Brome, in the assay with Morningglory and in the assay with Rhizome Johnsongrass was 0 to 24% in each case. The inhibition at 11200 g/ha in the assay with Canada thistle, in the assay on Yellow Nutsedge, with Quackgrass, in the assay with Velvetleaf and in the assay on Barnyardgrass was 0 to 24% in each case.

As for `CCOC(=O)c1c(OC)nc(C(F)F)c(C(=O)OC)c1CC(C)C` [Compound 26, 3,5-pyridinedicarboxylic acid, 2-(difluoromethyl)-6-methoxy-4-(2-methylpropyl)-, 5-ethyl 3-methyl ester], the inhibition at 11200 g/ha with Common Lambsquarters was 75 to 100%; in the assay with Pennsylvania Smartweed, 75 to 100%; in the assay on Cocklebur, 0 to 24%; in the assay on Downy Brome, 75 to 100%; in the assay with Morningglory, 75 to 100%; in the assay on Rhizome Johnsongrass, 75 to 100%. The inhibition at 11200 g/ha in the assay with Canada thistle lay within 75 to 100%; with Yellow Nutsedge, 0 to 24%; in the assay with Quackgrass, 75 to 100%; in the assay with Velvetleaf, 75 to 100%; with Barnyardgrass, 75 to 100%.

Source of the values: patent US5391540A, “Substituted pyridine compounds” (Rohm and Haas Company, priority 1993, dated 1995).
